# Experimental data reported in ChEMBL document CHEMBL4665709, “Rational Avoidance of Protease Cleavage Sites and Symmetrical End-Tagging Significantly Enhances the Stability and Therapeutic Potential of Antimicrobial Peptides” (J Med Chem, 2020).
# The source made the active and inactive calls. No cut-off for these calls is given here. Where a SMILES comes first, the peptide text is derived from it.
# Columns and labels:
# Escherichia coli [1] = experiment: Antibacterial activity against Escherichia coli ATCC 25922 infected in C57BL/6 mouse assessed as reduction in bacterial load in liver at 10 mg/kg, ip measured after 11 hrs (reference value: 7.12 log CFU/g); assay type: functional
# Cell membrane [2] = experiment: Induction of morpholoical changes in membrane of Escherichia coli ATCC 25922 assessed as corrugation in bacterial membrane at 1 times MIC after 1 hr by scanning electron microscopy
# Escherichia coli [3] = experiment: Antibacterial activity against Escherichia coli ATCC 25922 measured after 18 to 24 hrs in presence of chymotrypsin by CLSI-based broth microdilution method; assay type: functional, organism-based; conditions: time hrs 18-24
# Staphylococcus aureus [4] = experiment: Antibacterial activity against Staphylococcus aureus ATCC 29213 after 18 to 24 hrs in presence of 4.5 mM K+ by CLSI-based broth microdilution method; assay type: functional; conditions: time hrs 18-24
# [5] = Therapeutic index, ratio of MHC for human RBC to geometric mean of peptide MIC for Enterococcus faecalis ATCC 29212; assay type: toxicity; conditions: human red blood cells (RBC), read-out: TI
# Escherichia coli [6] = experiment: Antibacterial activity against Escherichia coli ATCC 25922 infected in C57BL/6 mouse assessed as reduction in IL-6 level in serum at 10 mg/kg, ip measured after 11 hrs by ELISA; assay type: functional, organism-based
# Cell membrane [7] = experiment: Induction of membrane permeabilization in Escherichia coli ATCC 25922 after 1 hr by PI fluorescence staining-based confocal microscopy analysis
# Staphylococcus aureus [8] = experiment: Antibacterial activity against methicillin-resistant Staphylococcus aureus 43300 after 18 to 24 hrs by CLSI-based broth microdilution method; assay type: functional; conditions: time hrs 18-24
# Escherichia coli [9] = experiment: Antibacterial activity against Escherichia coli 25922 measured over 40 passages; assay type: functional, organism-based; conditions: ATCC 25922
# Escherichia coli [10] = experiment: Antibacterial activity against Escherichia coli ATCC 25922 infected in C57BL/6 mouse assessed as reduction in bacterial load in lung at 10 mg/kg, ip measured after 11 hrs (reference value: 6.48 log CFU/g); assay type: functional
# Cell membrane [11] = experiment: Induction of morpholoical changes in membrane of Staphylococcus aureus ATCC 29213 assessed as breakage in bacterial membrane at 1 times MIC after 1 hr by scanning electron microscopy; assay type: subcellular
# RAW264.7 = experiment: Antiinflammatory activity in mouse RAW264.7 cells assessed as inhibition of LPS-induced IL-1beta production after 24 hrs by ELISA; assay type: functional, cell-based
# [12] = Toxicity in C57BL/6 mouse assessed as effect on alanine aminotransferase level at 10 mg/kg, ip measured after 5 days; assay type: organism-based; conditions: in vivo, 120 h, time 5 day
# Cell membrane [13] = experiment: Induction of morpholoical changes in membrane of Escherichia coli ATCC 25922 assessed as fragmentation in bacterial membrane at 1 times MIC after 1 hr by scanning electron microscopy; assay type: subcellular
# Staphylococcus aureus [14] = experiment: Antibacterial activity against Staphylococcus aureus ATCC 29213 after 18 to 24 hrs in presence of 25% human serum by CLSI-based broth microdilution method; assay type: functional; conditions: time hrs 18-24
# Cell membrane [15] = experiment: Induction of cytoplasmic membrane depolarization in Escherichia coli ATCC 25922 at 0.5 to 2 times MIC up to 1000 secs by DiSC3-5 dye-based fluorescence assay; assay type: subcellular; conditions: time sec <=1000
# Escherichia coli [16] = experiment: Antibacterial activity against Escherichia coli ATCC 25922 measured after 18 to 24 hrs in presence of pepsin by CLSI-based broth microdilution method; assay type: functional, organism-based; conditions: time hrs 18-24
# Escherichia coli [17] = experiment: Antibacterial activity against Escherichia coli ATCC 25922 infected in C57BL/6 mouse reduction in inflammatory cell infiltration in liver at 10 mg/kg, ip measured after 11 hrs by hematoxylin and eosin staining based assay; assay type: functional, organism-based
# [18] = Toxicity in C57BL/6 mouse assessed as change in body weigh at 20 mg/kg, ip measured for 5 days; assay type: organism-based; conditions: in vivo, 120 h, time 5 day
# Cell membrane [19] = experiment: Induction of structural changes in membrane of Staphylococcus aureus ATCC 29213 assessed as membrane damage at 1 times MIC after 1 hr by transmission electron microscopy; assay type: subcellular
# [20] = test system: Staphylococcus epidermidis; experiment: Antibacterial activity against Staphylococcus epidermidis ATCC 12228 after 18 to 24 hrs by CLSI-based broth microdilution method; assay type: functional; conditions: time hrs 18-24
# [21] = Toxicity in C57BL/6 mouse assessed as effect on creatinine level at 20 mg/kg, ip measured after 5 days; assay type: organism-based; conditions: in vivo, 120 h, time 5 day
# Cell membrane [22] = experiment: Induction of structural changes in membrane of Staphylococcus aureus ATCC 29213 assessed as cytoplasmic leakage at 1 times MIC after 1 hr by transmission electron microscopy
# Escherichia coli [23] = experiment: Antibacterial activity against Escherichia coli ATCC 25922 after 18 to 24 hrs in presence of 150 mM Na+ by CLSI-based broth microdilution method; assay type: functional; conditions: time hrs 18-24
# [24] = Therapeutic index, ratio of MHC for human RBC to geometric mean of peptide MIC for Salmonella typhimurium 14028; assay type: toxicity; conditions: human red blood cells (RBC), read-out: TI
# Cell membrane [25] = experiment: Disruption of membrane integrity in Staphylococcus aureus ATCC 29213 assessed as induction of membrane rupture at 2 times MIC after 1 hr by PI-staining based flow cytometry analysis
# Staphylococcus aureus [26] = experiment: Antibacterial activity against Staphylococcus aureus ATCC 29213 after 18 to 24 hrs in presence of 50% human serum by CLSI-based broth microdilution method; assay type: functional; conditions: time hrs 18-24
# [27] = Therapeutic index, ratio of MHC for human RBC to geometric mean of peptide MIC for methicillin-resistant Staphylococcus aureus 43300; assay type: toxicity; conditions: human red blood cells (RBC), read-out: TI
# Escherichia coli [28] = experiment: Antibacterial activity against Escherichia coli ATCC 25922 measured after 18 to 24 hrs in presence of proteinase K by CLSI-based broth microdilution method; assay type: functional, organism-based; conditions: time hrs 18-24
# [29] = Stability of compound assessed as chymotrypsin (unknown origin)-mediated drug degradation after 8 hrs by RP-HPLC analysis; assay type: ADME; conditions: human
# Cell membrane [30] = experiment: Induction of outer membrane permeabilization in Escherichia coli ATCC 25922 after 30 mins by NPN-dye based assay
# Escherichia coli [31] = experiment: Antibacterial activity against Escherichia coli ATCC 25922 infected in C57BL/6 mouse assessed as reduction in bleeding in kidney at 10 mg/kg, ip measured after 11 hrs by hematoxylin and eosin staining based assay; assay type: functional, organism-based
# Erythrocyte = experiment: Hemolytic activity in human RBC assessed as hemolysis; assay type: ADME, cell-based
# [32] = Toxicity in C57BL/6 mouse assessed as effect on total bilirubin level at 20 mg/kg, ip measured after 5 days; assay type: organism-based; conditions: in vivo, 120 h, time 5 day
# Trypsin = Trypsin (Homo sapiens, UniProt P07477+P07478+P35030); experiment: Stability of compound assessed as trypsin (unknown origin)-mediated drug degradation after 8 hrs by RP-HPLC analysis; assay type: ADME, protein assay
# [33] = Toxicity in C57BL/6 mouse assessed as effect on total bilirubin level at 10 mg/kg, ip measured after 5 days; assay type: organism-based; conditions: in vivo, 120 h, time 5 day
# [34] = Stability of compound assessed as proteinase K (unknown origin)-mediated drug degradation after 8 hrs by RP-HPLC analysis; assay type: ADME; conditions: human
# [35] = Therapeutic index, ratio of MHC for human RBC to geometric mean of peptide MIC for Escherichia coli UB1005; assay type: toxicity; conditions: human red blood cells (RBC), read-out: TI
# Cell membrane [36] = experiment: Induction of structural changes in membrane of Escherichia coli ATCC 25922 assessed as outer membrane separation at 1 times MIC after 1 hr by transmission electron microscopy; assay type: subcellular
structure (smiles),measurement,setting,value
CC[C@H](C)[C@H](N)C(=O)N[C@H](C(=O)N[C@H](C(=O)N[C@@H](CS)C(=O)N[C@@H](CCCNC(=N)N)C(=O)N[C@@H](CCCCN)C(=O)N1CCC[C@H]1C(=O)N[C@H](C(=O)N[C@H](C(=O)N[C@@H](CS)C(=O)N[C@@H](CCCNC(=N)N)C(=O)N[C@@H](CCCCN)C(=O)N1CCC[C@H]1C(=O)N[C@H](C(=O)N[C@H](C(=O)N[C@@H](CS)C(=O)N[C@@H](CCCNC(=N)N)C(=O)N[C@@H](CCCCN)C(=O)N1CCC[C@H]1C(=O)N[C@H](C(=O)N[C@H](C(=O)N[C@@H](CS)C(=O)N[C@@H](CCCNC(=N)N)C(=O)N[C@@H](CCCCN)C(=O)N1CCC[C@H]1C(=O)N[C@H](C(=O)N[C@H](C(=O)N[C@H](C(N)=O)[C@@H](C)CC)[C@@H](C)CC)[C@@H](C)CC)[C@@H](C)CC)[C@@H](C)CC)[C@@H](C)CC)[C@@H](C)CC)[C@@H](C)CC)[C@@H](C)CC)[C@@H](C)CC)[C@@H](C)CC (H-IIICRKPIICRKPIICRKPIICRKPIII-NH2),Activity,Escherichia coli [1],5.08 log10CFU/g
same,Activity,Cell membrane [2],Active
same,Activity,Escherichia coli [3],Active
same,MIC,Staphylococcus aureus [4],8 µM
same,selectivity ratio,[5],28.5
same,Activity,Escherichia coli [6],Active
same,Activity,Cell membrane [7],Active
same,MIC,Staphylococcus aureus [8],4 µM
same,Activity,Escherichia coli [9],Active
same,Activity,Escherichia coli [10],5.58 log10CFU/g
same,Activity,Cell membrane [11],Active
same,Activity,RAW264.7,Dose-dependent effect
same,Activity,[12],Non-Toxic
same,Activity,Cell membrane [13],Active
same,MIC,Staphylococcus aureus [14],8 µM
same,Activity,Cell membrane [15],Active
same,Activity,Escherichia coli [16],Active
same,Activity,Escherichia coli [17],Active
same,Activity,[18],Non-Toxic
same,Activity,Cell membrane [19],Active
same,MIC,[20],4 µM
same,Activity,[21],Non-Toxic
same,Activity,Cell membrane [22],Active
same,MIC,Escherichia coli [23],4 µM
same,selectivity ratio,[24],57
same,Activity,Cell membrane [25],> 90%
same,MIC,Staphylococcus aureus [26],16 µM
same,selectivity ratio,[27],28.5
same,Activity,Escherichia coli [28],Active
same,Stabilty,[29],Stable
same,Activity,Cell membrane [30],Dose-dependent effect
same,Activity,Escherichia coli [31],Active
same,MHC,Erythrocyte,> 128 µM
same,Activity,[32],Non-Toxic
same,Stabilty,Trypsin,Stable
same,Activity,[33],Non-Toxic
same,Stabilty,[34],Stable
same,selectivity ratio,[35],57
same,Activity,Cell membrane [36],Active
